“Also recorded” adds a separate entry of the source.
Key:
[1] = test system: S. invicta sNPF receptor (HA-tagged, stably expressed in CHO-K1 cells); assay: Inhibition of forskolin-stimulated intracellular cAMP in SisNPFR-C6E8 cell line (cAMP EIA); assay type: cell-based, Solenopsis invicta; conditions: for Activity on the receptor (change of forskolin-stimulated cAMP), result in words: forskolin 10 µM, peptide at 1 µM (analogous sNP(F) tested at 10 nM and 1 µM), three biological replicates; for EC50: 50 µM Ro-20-1724, forskolin 10 µM with 0-10 µM peptide (10 concentrations), 1 h, 37°C, three independent biological replicates
Method: For the functional characterization of S. invicta sNPFR, stably transformed cell lines were established as described. In brief, CHO-K1 cells were obtained from the American Type Culture Collection (ATCC, Manassas, VA, USA) and grown as described in a 5% CO2 humidified incubator at 37°C. For transfection, CHO-K1 cells were seeded into T-25 tissue culture flasks and allowed to grow overnight until 50% confluent. Cells were transfected in serum-free Opti-MEM medium (Life Technologies, Gaithersburg, MD, USA) with the cationic lipid reagent Lipofectin (Life Technologies) (6 µl) and 2 µg of the expression construct according to the manufacturer’s protocol. After 6 h, the lipofectin-containing medium was removed and replaced with F12K (Sigma, St. Louis, MO, USA) medium plus 10% fetal bovine serum (EquiTech Bio, Kerrville, TX, USA) without antibiotic. After 48 h of growth, the cells were split into the same medium but with antibiotic Geneticin (Invitrogen) (800 µg/ml), and selection continued for 5 weeks followed by isolation of clonal lines. A total of 14 clonal cell lines were obtained by dilution and selection of single cells distributed in a 96-well plate (96 theoretical single cells). Presence of S. invicta sNPFR transcript was verified by screening by RT-PCR by pooling aliquots from clonal cell lines. For this, total RNA was isolated by RNeasy Mini kit (Qiagen) and used for cDNA synthesis with SuperScript III First-Strand Synthesis System followed by RT-PCR with receptor forward sNPFRf1 and reverse sNPFRr1 primers (Table S1). The cell lines from groups that generated the RT-PCR product of the expected size were further screened. Single positive clonal cell lines were subjected to functional assay using S. invicta sNPF1 and sNPF2 as ligands. Cell line C6 was further selected to obtain a line designated SisNPFR-C6E8, which was the best performing cell line and was chosen for receptor functional characterization.
To quantify changes in intracellular cAMP, 1×10^5 cells of SisNPFR-C6E8 were seeded in each well of a 6-well plate and incubated at 37°C in presence of 5% CO2 for 24 h to allow cell attachment. Cell culture medium [F12 K medium with 10% fetal bovine serum and 400 µg/ml of Geneticin] was then replaced with the same fresh medium as above and the cells were grown for additional 48 h until they reached 90–100% confluence. The cells were rinsed twice with F12 K medium only (serum and antibiotic free) and then incubated in 50 µM Ro-20-1724 phosphodiesterase inhibitor (Santa Cruz Biotechnology, Santa Cruz, CA, USA) in F12 K medium. Forskolin (10 µM) (Cayman Chemical, Ann Arbor, MI, USA) or forskolin (10 µM) with 0–10 µM solutions of ligands (10 concentrations), respectively, were added to the cells and incubated at 37°C in the presence of 5% CO2 for 1 h. Cells were rinsed once with F12 K medium, serum- and antibiotic-free, followed by lysis with 274 µl of 0.1 M HCl at RT for 20 min and centrifugation at 1000 g for 10 min. The supernatant was used for cAMP measurements using the cyclic AMP EIA Kit (Cayman Chemical) following the manufacturer’s protocol. In brief, 50 µl of supernatants and cAMP standards were loaded in a 96-well plate, and the cAMP EIA buffer was used as blank. cAMP AChE tracer (50 µl) (cAMP bound to acetylcholinesterase for competition) and 50 µl of anti-cAMP specific antiserum were added. Then the mixture was incubated at 4°C for 18 h. The mixture was removed and the plate was rinsed five times with wash buffer containing 0.05% polysorbate-20. After washing, the plate was developed at RT for 2 h using the Ellman’s reagent and the OD (412 nm) was measured in a VersaMax tunable microplate reader (Molecular Devices, Sunnyvale, CA, USA). cAMP level was calculated using Cayman provided formulas and aided by software located at http://www.myassays.com/(MyAssays Ltd., Haywards Heath, West Sussex, UK) for the output standard line graph and cAMP concentration calculations. […]

[2] = test system: S. invicta sNPF receptor (SisNPFR-C6E8 cell line); assay: Pilot study: stimulation of intracellular cAMP production in SisNPFR-C6E8 cell line; assay type: cell-based, Solenopsis invicta
Method: To quantify changes in intracellular cAMP, 1×10^5 cells of SisNPFR-C6E8 were seeded in each well of a 6-well plate and incubated at 37°C in presence of 5% CO2 for 24 h to allow cell attachment. Cell culture medium [F12 K medium with 10% fetal bovine serum and 400 µg/ml of Geneticin] was then replaced with the same fresh medium as above and the cells were grown for additional 48 h until they reached 90–100% confluence. The cells were rinsed twice with F12 K medium only (serum and antibiotic free) and then incubated in 50 µM Ro-20-1724 phosphodiesterase inhibitor (Santa Cruz Biotechnology, Santa Cruz, CA, USA) in F12 K medium. […] After washing, the plate was developed at RT for 2 h using the Ellman’s reagent and the OD (412 nm) was measured in a VersaMax tunable microplate reader (Molecular Devices, Sunnyvale, CA, USA). cAMP level was calculated using Cayman provided formulas and aided by software located at http://www.myassays.com/(MyAssays Ltd., Haywards Heath, West Sussex, UK) for the output standard line graph and cAMP concentration calculations. […] For this, the average absorbance readings for non-specific binding (NSB) and B0 wells were obtained, and the NSB average was deducted from the B0 average to generate the corrected B0 maximum binding value. […] The cAMP concentration of each sample was determined on the basis of the standard curve. […]

Substance | Activity on the receptor (change of forskolin-stimulated cAMP), result in words [1] | Activity on the receptor (change of forskolin-stimulated cAMP), result in words ([1]; listed as honey bee long NPF (NPY)) | EC50 [1] [nM] | Stimulation of intracellular cAMP production (without forskolin), result in words [2]
AQRSPSLRLRFa [Drome sNPF1, Drosophila melanogaster sNPF peptide (AAN11060.1)] | not active1 µM | – | – | –
EPEPMARPTRPEIFTSPEELRRYIDHVSDYYLLSGKARYa [Apime NPY, Honey bee (A. mellifera) NPY, long NPF (NP_001161192.1), commercially synthesized] | failed to change the cAMP production; also recorded: not active1 µM | not activated | – | –
SALAAGHLRYa [S. invicta sNPF2] | – | – | 8.6 | did not stimulate production of intracellular cAMP
SLRSALAAGHLRFa [Analogous sNP(F), Analog of S. invicta sNPF1 with C-terminal amidated Y switched to F] | eliminates the ligand activity on the receptor | – | – | –
SLRSALAAGHLRYa [S. invicta sNPF1] | decreased cAMP | – | 3.28 | did not stimulate production of intracellular cAMP
SPSLRLRFa [Drome sNPF212–19] | not active1 µM | – | – | –
WFGDVNQKPIRSPSLRLRFa [Drome sNPF2, Drosophila melanogaster sNPF peptide (AAN11060.1)] | not active1 µM | – | – | –

From paper PMC4195672, “The Red Imported Fire Ant (Solenopsis invicta Buren) Kept Y not F: Predicted sNPY Endogenous Ligands Deorphanize the Short NPF (sNPF) Receptor” (PLoS ONE, 2014)
